pIC50: −log10 of the molar value.
Tests used:
Rattus norvegicus = assay: Blockade of progesterone-dependent inhibition of ethinyl estradiol-induced complement C3 expression in po dosed ovariectomized Sprague-Dawley rat uterus; type: functional, organism-based
Progesterone receptor = target: T1, Progesterone receptor (Homo sapiens, UniProt P06401); assay: Antagonist activity at progesterone receptor in human T47D cells assessed as inhibition of progesterone-induced alkaline phosphatase activity; type: functional, cell-based
T1 sequence (P06401 whole entry): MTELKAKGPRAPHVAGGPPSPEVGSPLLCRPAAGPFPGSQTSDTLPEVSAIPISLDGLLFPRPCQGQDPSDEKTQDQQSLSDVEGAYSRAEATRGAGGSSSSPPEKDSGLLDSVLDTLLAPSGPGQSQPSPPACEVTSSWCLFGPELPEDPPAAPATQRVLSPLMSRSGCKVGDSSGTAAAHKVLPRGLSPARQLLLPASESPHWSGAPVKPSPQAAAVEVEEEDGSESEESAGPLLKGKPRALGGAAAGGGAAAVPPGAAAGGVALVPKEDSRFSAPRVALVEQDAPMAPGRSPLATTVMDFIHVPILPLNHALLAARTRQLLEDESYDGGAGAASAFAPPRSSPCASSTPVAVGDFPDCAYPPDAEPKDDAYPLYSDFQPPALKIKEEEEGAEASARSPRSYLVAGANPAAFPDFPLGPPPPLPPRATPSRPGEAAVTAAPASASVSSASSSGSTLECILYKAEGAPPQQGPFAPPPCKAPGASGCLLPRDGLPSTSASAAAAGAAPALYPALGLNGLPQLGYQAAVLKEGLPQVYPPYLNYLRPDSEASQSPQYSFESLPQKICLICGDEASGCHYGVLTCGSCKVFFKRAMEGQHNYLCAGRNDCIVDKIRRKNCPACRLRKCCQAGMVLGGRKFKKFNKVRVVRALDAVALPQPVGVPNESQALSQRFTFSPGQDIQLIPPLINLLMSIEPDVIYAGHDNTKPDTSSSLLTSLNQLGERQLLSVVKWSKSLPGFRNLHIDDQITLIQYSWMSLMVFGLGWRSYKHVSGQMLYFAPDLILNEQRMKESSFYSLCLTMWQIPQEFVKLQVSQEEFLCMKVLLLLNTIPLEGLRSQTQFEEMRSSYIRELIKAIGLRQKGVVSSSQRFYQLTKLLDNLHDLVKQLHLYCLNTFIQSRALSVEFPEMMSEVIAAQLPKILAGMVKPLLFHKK

Glucocorticoid receptor = target: T2, Glucocorticoid receptor (Homo sapiens, UniProt P04150); assay: Antagonist activity at glucocorticoid receptor in human A549 cells assessed as inhibition of corticoid-induced transcription after 16 hrs by glucocorticoid response element-driven luciferase reporter gene assay; type: functional, cell-based
T2 sequence (P04150 whole entry): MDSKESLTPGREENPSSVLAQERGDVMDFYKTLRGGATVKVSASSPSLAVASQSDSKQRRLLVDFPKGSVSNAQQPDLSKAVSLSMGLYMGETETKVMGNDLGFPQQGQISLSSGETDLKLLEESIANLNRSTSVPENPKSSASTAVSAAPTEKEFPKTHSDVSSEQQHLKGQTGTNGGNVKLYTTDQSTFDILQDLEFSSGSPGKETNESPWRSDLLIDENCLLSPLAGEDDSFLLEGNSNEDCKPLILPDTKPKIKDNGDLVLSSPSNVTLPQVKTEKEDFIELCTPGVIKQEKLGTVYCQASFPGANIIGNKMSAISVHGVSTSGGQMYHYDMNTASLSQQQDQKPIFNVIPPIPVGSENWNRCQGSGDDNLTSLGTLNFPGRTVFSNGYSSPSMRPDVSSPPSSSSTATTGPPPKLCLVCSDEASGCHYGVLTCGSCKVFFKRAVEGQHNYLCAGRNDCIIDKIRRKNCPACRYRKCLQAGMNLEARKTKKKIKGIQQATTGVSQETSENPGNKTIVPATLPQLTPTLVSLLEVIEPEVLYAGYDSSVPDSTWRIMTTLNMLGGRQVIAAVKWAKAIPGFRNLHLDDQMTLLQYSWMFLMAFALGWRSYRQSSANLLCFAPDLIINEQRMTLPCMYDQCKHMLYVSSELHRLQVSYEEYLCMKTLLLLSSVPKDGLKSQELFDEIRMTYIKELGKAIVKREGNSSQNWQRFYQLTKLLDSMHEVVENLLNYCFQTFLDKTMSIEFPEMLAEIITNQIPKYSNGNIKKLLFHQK

Row | Structure (SMILES) | IC50 (Rattus norvegicus) | pIC50 (Progesterone receptor) | pIC50 (Glucocorticoid receptor)
1 | CC#C[C@]1(O)CC[C@H]2[C@@H]3CCC4=CC(=O)CCC4=C3[C@@H](c3ccc(N(C)C)cc3)C[C@@]21C [MIFEPRISTONE] | 4.6 mg/kg |  | 
2 | C=C(C)[C@]1(O)CC[C@H]2[C@@H]3CCC4=CC(=O)CCC4=C3[C@@H](c3ccc(S(C)(=O)=O)cc3)OC[C@@]21C |  | < 6.00 | < 5.52
3 | CN(C)c1ccc([C@H]2OC[C@@]3(C)[C@@H](CC[C@@]3(O)C#Cc3ccccc3)[C@@H]3CCC4=CC(=O)CCC4=C32)cc1 |  | 7.22 | 6.99
4 | CSc1ccc([C@H]2OC[C@@]3(C)[C@@H](CC[C@@]3(O)C(F)(F)C(F)(F)F)[C@@H]3CCC4=CC(=O)CCC4=C32)cc1 |  | 7.25 | 8.15
5 | C#C[C@]1(O)CC[C@H]2[C@@H]3CCC4=CC(=O)CCC4=C3[C@@H](c3ccc(OC)cc3)OC[C@@]21C |  | < 6.00 | 6.96
6 | C=C1CCO[C@]12CC[C@H]1[C@@H]3CCC4=CC(=O)CCC4=C3[C@@H](c3ccc(OC)cc3)OC[C@@]12C |  | 8.15 | 6.88
7 | C=C(C)[C@]1(O)CC[C@H]2[C@@H]3CCC4=CC(=O)CCC4=C3[C@@H](c3ccc(N(C)C)cc3)OC[C@@]21C |  | 9.52 | 6.82
8 | COc1ccc([C@H]2OC[C@@]3(C)[C@@H](CC[C@@]3(O)C#Cc3ccc(C(F)(F)F)cc3)[C@@H]3CCC4=CC(=O)CCC4=C32)cc1 |  | 7.09 | 7.59
9 | C=C(C)[C@]1(O)CC[C@H]2[C@@H]3CCC4=CC(=O)CCC4=C3[C@@H](c3ccc(SC)cc3)OC[C@@]21C |  | 8.48 | 7.24
10 | CC#C[C@]1(O)CC[C@H]2[C@@H]3CCC4=CC(=O)CCC4=C3[C@@H](c3ccc(OC)cc3)OC[C@@]21C |  | < 6.00 | 7.39
11 | CN(C)c1ccc([C@H]2OC[C@@]3(C)[C@@H](CC[C@@]3(O)C(F)(F)C(F)(F)F)[C@@H]3CCC4=CC(=O)CCC4=C32)cc1 |  | 7.44 | 7.70
12 | C#C[C@]1(O)CC[C@H]2[C@@H]3CCC4=CC(=O)CCC4=C3[C@@H](c3ccc(N(C)C)cc3)OC[C@@]21C |  | 7.48 | 7.17
13 | C=C1CCO[C@]12CC[C@H]1[C@@H]3CCC4=CC(=O)CCC4=C3[C@@H](c3ccc(N(C)C)cc3)OC[C@@]12C |  | 9.00 | 7.21
14 | CC#C[C@]1(O)CC[C@H]2[C@@H]3CCC4=CC(=O)CCC4=C3[C@@H](c3ccc(N(C)C)cc3)OC[C@@]21C | 16 mg/kg | 7.47 | 7.77
15 | COc1ccc([C@H]2OC[C@@]3(C)[C@@H](CC[C@@]3(O)C#Cc3ccccc3)[C@@H]3CCC4=CC(=O)CCC4=C32)cc1 |  | 6.55 | 7.68
16 | CN(C)c1ccc([C@H]2OC[C@]3(C)[C@@H](O)CC[C@H]3[C@@H]3CCC4=CC(=O)CCC4=C32)cc1 |  | 6.03 | 5.85

Source: ChEMBL document CHEMBL1152897, “Synthesis and SAR study of novel pseudo-steroids as potent and selective progesterone receptor antagonists” (Bioorg Med Chem Lett, 2009)
